Results on 32 molecules are retold here after ChEMBL document CHEMBL1128968, “Phosphinic acid inhibitors of matrix metalloproteinases” (Bioorg Med Chem Lett, 1996).

Test [1] deals with T1, Interstitial collagenase (Homo sapiens, UniProt P03956).
T1 sequence (P03956 whole entry): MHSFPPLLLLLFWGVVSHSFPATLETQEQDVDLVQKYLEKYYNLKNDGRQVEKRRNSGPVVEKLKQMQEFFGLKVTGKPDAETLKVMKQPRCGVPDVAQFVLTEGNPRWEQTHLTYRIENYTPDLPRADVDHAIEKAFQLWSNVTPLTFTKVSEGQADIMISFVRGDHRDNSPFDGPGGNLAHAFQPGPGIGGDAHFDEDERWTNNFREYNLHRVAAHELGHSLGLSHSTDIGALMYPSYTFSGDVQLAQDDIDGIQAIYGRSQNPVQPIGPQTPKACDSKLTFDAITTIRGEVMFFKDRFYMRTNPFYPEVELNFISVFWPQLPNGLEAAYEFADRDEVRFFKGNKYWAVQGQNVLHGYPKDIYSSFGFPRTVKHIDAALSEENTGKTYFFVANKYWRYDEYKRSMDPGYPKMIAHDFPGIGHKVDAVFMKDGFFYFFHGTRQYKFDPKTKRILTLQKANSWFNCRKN
Nature of the test: Inhibition of collagenase-1 (MMP-1).

Test [2] addresses T2, 72 kDa type IV collagenase (Homo sapiens, UniProt P08253). The experiment in a line: Inhibition of gelatinase-A (MMP-2).
Target sequence in this assay (P08253 whole entry): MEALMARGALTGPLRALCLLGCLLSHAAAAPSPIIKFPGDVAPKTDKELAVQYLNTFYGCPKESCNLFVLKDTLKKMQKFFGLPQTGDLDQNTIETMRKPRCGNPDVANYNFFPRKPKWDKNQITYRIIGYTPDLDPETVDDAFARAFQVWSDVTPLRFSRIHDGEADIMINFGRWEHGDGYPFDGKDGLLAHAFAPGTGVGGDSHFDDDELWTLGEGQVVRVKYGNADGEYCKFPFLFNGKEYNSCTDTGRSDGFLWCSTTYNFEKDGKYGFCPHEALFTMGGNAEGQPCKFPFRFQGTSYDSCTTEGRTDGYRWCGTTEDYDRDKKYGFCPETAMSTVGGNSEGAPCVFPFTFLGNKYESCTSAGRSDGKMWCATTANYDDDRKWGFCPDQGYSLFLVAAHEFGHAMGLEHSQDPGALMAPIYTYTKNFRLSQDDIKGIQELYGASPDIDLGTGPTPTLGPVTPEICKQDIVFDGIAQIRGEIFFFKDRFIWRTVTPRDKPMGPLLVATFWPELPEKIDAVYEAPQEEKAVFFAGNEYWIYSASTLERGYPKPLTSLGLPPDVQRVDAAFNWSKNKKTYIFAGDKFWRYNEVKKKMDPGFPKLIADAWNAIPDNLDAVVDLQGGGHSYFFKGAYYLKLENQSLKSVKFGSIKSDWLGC
Test [3] deals with T3, Stromelysin-1 (Homo sapiens, UniProt P08254). The experiment in a line: Inhibition of stromelysin-1 (MMP-3).
Test [4] concerns the target T3, Stromelysin-1. The experiment in a line: Inhibition of stromelysin-1 (MMP-3).
The target of test [5] is T2, 72 kDa type IV collagenase. The experiment in a line: Inhibition of gelatinase-A (MMP-2) at a concentration of 1 uM.
Target sequence in this assay (P08253 110-660 limits assumed): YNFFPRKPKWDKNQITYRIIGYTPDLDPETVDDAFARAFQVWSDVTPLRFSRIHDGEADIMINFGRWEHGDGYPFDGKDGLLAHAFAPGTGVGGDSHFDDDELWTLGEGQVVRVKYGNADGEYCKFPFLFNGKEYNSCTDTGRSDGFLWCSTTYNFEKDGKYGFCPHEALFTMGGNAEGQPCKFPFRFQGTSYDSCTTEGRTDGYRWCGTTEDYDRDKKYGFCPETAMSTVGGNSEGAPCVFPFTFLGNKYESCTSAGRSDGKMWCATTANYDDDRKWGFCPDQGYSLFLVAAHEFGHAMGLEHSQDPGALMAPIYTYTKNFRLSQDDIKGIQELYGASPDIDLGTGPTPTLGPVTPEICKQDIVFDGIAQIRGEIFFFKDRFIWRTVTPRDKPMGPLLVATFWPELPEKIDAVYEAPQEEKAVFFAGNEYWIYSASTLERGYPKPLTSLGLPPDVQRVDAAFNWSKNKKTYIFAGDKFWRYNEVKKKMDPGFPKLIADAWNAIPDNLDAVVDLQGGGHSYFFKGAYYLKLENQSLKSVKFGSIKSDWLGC
The target of test [6] is T2, 72 kDa type IV collagenase. The experiment in a line: Inhibition of gelatinase-A (MMP-2).
Target sequence in this assay (P08253 whole entry): as the sequence (P08253 whole entry) above

T3 sequence (P08254 whole entry): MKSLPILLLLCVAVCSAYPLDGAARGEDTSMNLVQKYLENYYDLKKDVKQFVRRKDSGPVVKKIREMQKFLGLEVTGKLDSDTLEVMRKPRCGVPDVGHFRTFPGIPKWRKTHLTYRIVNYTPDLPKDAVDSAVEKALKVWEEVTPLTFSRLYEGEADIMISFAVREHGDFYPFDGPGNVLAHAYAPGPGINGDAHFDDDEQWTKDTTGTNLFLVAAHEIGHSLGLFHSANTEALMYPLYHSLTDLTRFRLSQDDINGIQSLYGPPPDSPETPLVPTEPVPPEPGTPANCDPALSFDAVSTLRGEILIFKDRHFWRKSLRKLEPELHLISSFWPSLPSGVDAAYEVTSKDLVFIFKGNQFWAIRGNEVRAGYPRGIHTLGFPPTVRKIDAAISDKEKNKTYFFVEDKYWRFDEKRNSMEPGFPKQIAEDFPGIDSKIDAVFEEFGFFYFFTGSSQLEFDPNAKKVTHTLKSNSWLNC

The term Ki denotes a measure of affinity in units of concentration, obtained from inhibition or displacement. Read a high Ki as lower affinity. Turning to `CC(C)C[C@H](NC(=O)[C@H](CCc1ccccc1)CP(=O)(O)CCCCN1C(=O)c2ccccc2C1=O)C(=O)Nc1ccccc1`, the Ki in test [1] is ≥ 10000 nM; in test [2], 20 nM.
Regarding `COC(=O)CCP(=O)(O)C[C@@H](CCc1ccccc1)C(=O)N[C@@H](CC(C)C)C(=O)Nc1ccccc1`, the Ki in test [1] was ≥ 10000 nM; in test [3] it was 520 nM; in test [2], 1300 nM.
Regarding `CC(=O)N1CCC[C@H]1C(=O)NCCCCP(=O)(O)C[C@@H](CCc1ccccc1)C(=O)N[C@@H](CC(C)C)C(=O)Nc1ccccc1`, the inhibitory constant (Ki) in test [1] is ≥ 10000 nM; in test [3], 62 nM; in test [2], 6.1 nM.
`CC(C)C[C@H](NC(=O)[C@H](CCc1ccccc1)CP(=O)(O)CCC(=O)NCc1ccccc1)C(=O)Nc1ccccc1`: the Ki in test [4] is 540 nM; in test [1], ≥ 10000 nM.
A word on the inhibition: it is the relative decrease from the control value, in per cent. For `CC(=O)N1CCC[C@@H]1C(=O)NCCCCP(=O)(O)C[C@@H](CCc1ccccc1)C(=O)N[C@@H](CC(C)C)C(=O)Nc1ccccc1`, the inhibition constant Ki was ≥ 10000 nM in test [1] and 26 nM in test [3]. In test [5], this molecule showed an inhibition of 92%.
One may read the IC50 as the concentration needed to halve the response being measured. Higher therefore signals lower potency. `CC(C)C[C@H](NP(=O)(O)CCCCN1C(=O)c2ccccc2C1=O)C(=O)N[C@@H](Cc1c[nH]c2ccccc12)C(=O)NCc1ccccc1`: the 50% inhibitory concentration (IC50) turned out to be 50 nM in test [1] and 260 nM in test [3].
On the same counts, the results for `CC(C)C[C@H](NC(=O)[C@H](Cc1ccccc1)NP(=O)(O)CCCCN1C(=O)c2ccccc2C1=O)C(=O)NCc1ccccc1` are 30000 nM and 2800 nM.
As to `CCOC(=O)NCCCCP(=O)(O)C[C@@H](CCc1ccccc1)C(=O)N[C@@H](CC(C)C)C(=O)Nc1ccccc1`, the Ki in test [1] was ≥ 10000 nM; in test [3] it was 16 nM. Besides, the inhibition in test [5] is 94%.
Regarding `CC(C)C[C@H](NC(=O)[C@H](CCc1ccccc1)CP(=O)(O)C/C=C/CN1C(=O)c2ccccc2C1=O)C(=O)Nc1ccccc1`, the results for the inhibition constant (Ki) in test [1], in test [3] and in test [2] were ≥ 10000 nM, 4.5 nM and 4.8 nM, respectively.
On the same counts, the results for `CC(C)C[C@H](NC(=O)[C@H](CCc1ccccc1)CP(=O)(O)CCCCNC(=O)[C@@H]1CCCN1C(=O)c1ccccc1)C(=O)Nc1ccccc1` are ≥ 10000 nM, 13 nM and 2.1 nM.
As for `CC(C)C[C@H](NC(=O)[C@H](CCc1ccccc1)CP(=O)(O)CCC(=O)NCCCc1ccccc1)C(=O)Nc1ccccc1`, the values for the inhibition constant (Ki) in test [1] and in test [3] were ≥ 10000 nM and 670 nM, respectively. In test [5], this molecule displayed an inhibition of 46%.
For the molecule `CC(C)C[C@H](NC(=O)[C@H](CCc1ccccc1)CP(=O)(O)CCCCNC(=O)OCc1ccccc1)C(=O)Nc1ccccc1`, the inhibitory constant (Ki) in test [1] was ≥ 10000 nM; in test [3], 63 nM. Further, the inhibition in test [5] is 86%.
`CC(C)C[C@H](NC(=O)[C@H](CCc1ccccc1)CP(=O)(O)CCCCNC(=O)[C@H]1CCCN1C(=O)c1ccccc1)C(=O)Nc1ccccc1`: the Ki in test [1] was ≥ 10000 nM; in test [3], 24 nM. The same molecule returned an inhibition in test [5] of 89%.
On to `CC(C)C[C@H](NC(=O)[C@H](Cc1ccccc1)CP(=O)(O)CCCCN1C(=O)c2ccccc2C1=O)C(=O)NCc1ccccc1`, for which the IC50 in test [1] turned out to be 4100 nM; in test [3] it was 430 nM.
Consider `COc1cccc(CC[C@H](CP(=O)(O)CCCCN2C(=O)c3ccccc3C2=O)C(=O)N[C@@H](CC(C)C)C(=O)Nc2ccccc2)c1`, for which the inhibition constant (Ki) is ≥ 10000 nM in test [1], 2.5 nM in test [3] and 2.1 nM in test [2].
As to `CC(C)C[C@H](NC(=O)[C@H](CCc1ccccc1)CP(=O)(O)CCCCNC(=O)Cc1ccccc1)C(=O)Nc1ccccc1`, the Ki in test [1] is ≥ 10000 nM; in test [3] it was 30 nM; in test [2] it was 130 nM.
Regarding `CC(C)C[C@H](NC(=O)[C@H](CCc1ccccc1)CP(=O)(O)CCCCNC(=O)c1ccccc1)C(=O)Nc1ccccc1`, the values for the Ki in test [1], in test [3] and in test [2] were ≥ 10000 nM, 5.7 nM and 26 nM, respectively.
In test [3], `CC(C)C[C@H](NC(=O)[C@H](CCc1ccccc1)CP(=O)(O)CNC(=O)CN1C(=O)c2ccccc2C1=O)C(=O)Nc1ccccc1` displayed a Ki of 410 nM.
For `CC(C)C[C@H](NC(=O)[C@H](CCc1ccccc1)CP(=O)(O)CCCCNC(=O)Nc1ccccc1)C(=O)Nc1ccccc1`, the results for the inhibitory constant (Ki) in test [1] and in test [3] were ≥ 10000 nM and 70 nM, respectively. This molecule also returned an inhibition in test [5] of 85%.
Take `CC(C)C[C@H](NC(=O)[C@H](CCc1ccccc1)CP(=O)(O)CCCCN)C(=O)Nc1ccccc1`: the Ki in test [1] is ≥ 10000 nM; in test [3], 3700 nM. Besides, the inhibition in test [5] was 13%.
For `CCNC(=O)NCCCCP(=O)(O)C[C@@H](CCc1ccccc1)C(=O)N[C@@H](CC(C)C)C(=O)Nc1ccccc1`, the Ki was 19 nM in test [6], ≥ 10000 nM in test [1] and 17 nM in test [3].
As for `CC(C)C[C@H](NC(=O)[C@H](CCc1ccccc1)CP(C)(=O)O)C(=O)Nc1ccccc1`, the values for the inhibition constant Ki in test [1], in test [3] and in test [2] were ≥ 10000 nM, 1500 nM and 570 nM, respectively.
For `CC(C)C[C@H](NC(=O)[C@H](CCc1ccccc1)CP(=O)(O)CCCCNC(=O)NCc1ccccc1)C(=O)Nc1ccccc1`, the results for the Ki in test [1] and in test [3] were ≥ 10000 nM and 50 nM, respectively. Moreover, the inhibition in test [5] was 96%.
`CC(C)C[C@H](NC(=O)[C@H](CCc1ccccc1)CP(=O)(O)CCCCN1Cc2ccccc2C1=O)C(=O)Nc1ccccc1`: the figures for the inhibitory constant (Ki) in test [1], in test [3] and in test [2] were ≥ 10000 nM, 5.5 nM and 7.3 nM, respectively.
Consider `CC(C)C[C@H](NC(=O)[C@H](CCc1ccccc1)CP(=O)(O)CCC(=O)NCCc1ccccc1)C(=O)Nc1ccccc1`, for which the Ki is ≥ 10000 nM in test [1] and 170 nM in test [3]. The molecule also came in with an inhibition in test [5] of 58%.
For `COc1ccc(CC[C@H](CP(=O)(O)CCCCN2C(=O)c3ccccc3C2=O)C(=O)N[C@@H](CC(C)C)C(=O)Nc2ccccc2)cc1`, the figures for the inhibitory constant (Ki) in test [1], in test [3] and in test [2] were ≥ 10000 nM, 2.3 nM and 12 nM, respectively.
For the molecule `CC(C)C[C@H](NC(=O)[C@H](CCc1ccccc1)CP(=O)(O)CCC(=O)Nc1ccccc1)C(=O)Nc1ccccc1`, the inhibition constant Ki was ≥ 10000 nM in test [1] and 470 nM in test [3]. In test [5], this molecule came in with an inhibition of 60%.
`COc1ccccc1CC[C@H](CP(=O)(O)CCCCN1C(=O)c2ccccc2C1=O)C(=O)N[C@@H](CC(C)C)C(=O)Nc1ccccc1`: the results for the Ki in test [1], in test [3] and in test [2] were ≥ 10000 nM, 440 nM and 4400 nM, respectively.
On to `CC(C)C[C@H](NC(=O)[C@H](Cc1ccccc1)OP(=O)(O)CCCCN1C(=O)c2ccccc2C1=O)C(=O)NCc1ccccc1`, for which the IC50 in test [1] is > 32000 nM; in test [3], > 200000 nM.
`CNC(=O)NCCCCP(=O)(O)C[C@@H](CCc1ccccc1)C(=O)N[C@@H](CC(C)C)C(=O)Nc1ccccc1`: the inhibition constant Ki in test [1] is ≥ 10000 nM; in test [3], 130 nM. The same molecule gave an inhibition in test [5] of 87%.
Regarding `CC(C)C[C@H](NC(=O)[C@H](CCc1ccccc1)CP(=O)(O)CCCCNC(=O)Oc1ccccc1)C(=O)Nc1ccccc1`, the Ki in test [1] was ≥ 10000 nM; in test [3], 56 nM. The molecule further gave an inhibition in test [5] of 73%.
On to `COC(=O)NCCCCP(=O)(O)C[C@@H](CCc1ccccc1)C(=O)N[C@@H](CC(C)C)C(=O)Nc1ccccc1`, for which the Ki was ≥ 10000 nM in test [1] and 54 nM in test [3]. For the same molecule, the inhibition in test [5] worked out at 90%.
